Structures are written as SMILES.

A word on the melting point: it is the temperature of the solid-liquid transition.

The molecule `COc1cc(C)c2c(c1C)C(SC)C(=O)N2` (configuration not stated) returned a melting point of 226 to 227 °C.
In turn, `N#CC1=C(c2cc3ccccc3o2)Nc2n[nH]cc2C1c1cccc2nonc12` (configuration not stated) returned a melting point greater than 270 °C.
Next, `Cn1nc(C(F)(F)C(F)(F)F)cc1O`: 183 to 188 °C.
Turning to `CCNc1cccnc1N1CCN(C(=O)c2ccc(C(=O)N(CC)CCO)cc2)CC1`, the melting point is 106 to 108 °C.
On to `Clc1ccc(OC(c2cccnc2)n2cncn2)c(Cl)c1` (configuration not stated), for which the melting point was 75.5 to 78 °C.
The same measure for `COc1ccc(OC2COc3ccc(OCc4nc5cc(F)ccc5s4)cc3C2O)cc1` (configuration not stated): 180 to 181 °C; for `CCCCc1nc2c(N)nc(C)c(C)c2n1CCOc1ccccc1`: 130 to 132 °C.
In turn, `O=C(Cc1cccc(C(=O)O)c1)Nc1cccc(/C=C/c2nc(C3CCC3)cs2)c1` returned a melting point of 208 to 209 °C.
Next, `CC1(C(F)(F)F)NC(c2ncccc2C(=O)O)=NC1=O` (configuration not stated): 180 to 184 °C; `Cc1ccccc1CCNC(=O)c1c(Cl)ccc2nc(N3CCC(C(=O)O)CC3)ccc12`: 237 to 241 °C; `C(CCc1ccccc1)=C1CCN(Cc2nc3ccccc3[nH]2)CC1`: 163 to 165 °C.
Molecule `COc1ccc(C(=C/C=C/C(=O)NCCCCc2cccnc2)c2ccc(OC)c(OC)c2)cc1OC` came in with a melting point of 145 to 146 °C.
Next, `COc1cc(I)c(C(=O)Oc2ccccc2COC(=O)c2ccc3c(c2I)OCO3)cc1OC`: 128 to 130 °C; `CCOC(=O)c1cc(NCc2c(C)cccc2C)c2nc(C)n(COCc3ccccc3)c2c1`: 155 to 156 °C.
The molecule `O=C(NC(CC12CC3CC(CC(C3)C1)C2)Nc1c(Nc2cccnc2)c(=O)c1=O)c1ccccc1Cl` (configuration not stated) displayed a melting point of 224 to 225 °C.
`O=C(NCCC1=CCCCC1)NCCC1=CCCCC1` came in with a melting point of 129 to 131 °C.
The molecule `CNC(=O)c1c(NC(=O)CCl)c(OC)c(C(=O)NC)c([N+](=O)[O-])c1OC` registered a melting point of 259 to 260 °C.
`CNc1ccc(CN2C(=O)C(C)(c3ccccc3Cl)c3cc(Cl)ccc32)c(OC)c1` (configuration not stated) had a melting point of 226 °C.
In turn, `Cc1cn(-c2ncccn2)cc1C(=O)NC(=N)N` came in with a melting point of 208 °C.
Next, `COc1nc(C(=O)O)ccc1C#N`: 235 to 237 °C; `CC(C)COC(=O)Nc1ccc(Br)cc1`: 95 to 96 °C; `O=c1c2cccc(O)c2oc2cc(O)cc(O)c12`: 211 to 213 °C.
In turn, `CCc1nc(COc2ccc(NC(=O)/C=C/c3cnn(C)c3-c3ccc(F)cc3)cc2)cs1` gave a melting point of 98 to 99 °C.
Next, `CN(C)CCCCCC(=O)O`: 89 to 91 °C.
Molecule `NC(=O)Cc1cc(Oc2ccc3c(ccn3C(=O)Nc3ccc(N4CCN(C5CC5)CC4)c(C(F)(F)F)c3)c2)ncn1` displayed a melting point of 236 to 240 °C.
Consider `C1=NCC2=C3C(=C1)CCCC3CCC2` (configuration not stated), for which the melting point lay within 207 to 209 °C.
Next, `CCOC(=O)NC(=S)CNc1ccc(C(=O)OC)c(S(=O)(=O)NC(C)(C)C)c1`: 110 °C.
Next, `CCOC(=O)c1cn(Cc2c(F)cccc2F)c2cc(Br)c(CBr)cc2c1=O`: 184 to 187 °C; `COCCOc1ccc(CCC(=O)NS(=O)(=O)c2ccc(OC)cc2)c(Oc2ncc(C(F)(F)F)cc2Cl)c1`: 118 to 120 °C.
The same measure for `CNC(=O)CN1CCc2cc(Nc3ncc(Cl)c(Nc4ccccc4OC)n3)c(OC)cc2CC1`: 81 to 95 °C.
The molecule `CC(C)CNC(=O)[C@H]1C[C@H](C(=O)OC(C)(C)C)N(C(=O)CNC(=O)Nc2cccc(C(=O)O)c2)[C@@H]1c1ccccc1F` (racemic) registered a melting point of 160 °C.
Regarding `COC(=O)COc1c(CCC(C)C)c(OC)cc(OC)c1C(=O)CCc1ccc(OC)c(O)c1`, the melting point was in the range of 94 to 95 °C.
In turn, `O=C1CC2Sc3nc(=O)c4ccccc4n3C2(c2ccc(Cl)cc2)O1` (configuration not stated) gave a melting point of 215 to 220 °C.
`CN(C)CCOC(=O)c1cccc(Nc2cc(C(C)(C)C)c(O)c(C(C)(C)C)c2)c1` gave a melting point of 119 to 120 °C.
With `[N-]=[N+]=N[Si](c1ccccc1)(c1ccccc1)c1ccccc1`, the melting point was 82 to 84 °C.
Next, `COC1=CC(=O)c2c(C)cc(C)cc2C1=O`: 146 to 148 °C.
Molecule `CS(=O)(=O)Nc1ccc(C(=O)CN2CCN(c3cccnc3)CC2)cc1` came in with a melting point of 197 to 198 °C.
`COc1ccccc1N1CCN(CCc2[nH]c(=O)[nH]c2-c2ccc(F)cc2)CC1` returned a melting point of 213 to 214 °C.
Turning to `COc1ccc2cc([C@H](C)C(=O)NOCC(=O)N3CCC(CO[N+](=O)[O-])CC3)ccc2c1`, the melting point lay in the range of 45 to 47 °C.
For the molecule `NC(=O)c1ccc(F)c2c1CC(NCCCc1c[nH]c3ccc(Cl)cc13)CO2` (configuration not stated), the melting point lay within 218 to 221 °C.
Consider `Cn1c2ccccc2c2c3c(c4c5ccccc5n(CCCCN)c4c21)C(=O)NC3=O`, for which the melting point was in the range of 177 to 181 °C.
As to `O=C1C2CC3CCC(C2)N3C1C(c1ccccc1)c1ccccc1` (configuration not stated), the melting point lay in the range of 137 to 138 °C.
The same measure for `Cc1ncccc1Oc1ccc(NC(=O)NCCc2ccccc2)cn1`: 136 to 138 °C.
In the case of `N#Cc1c(N2CCN(C(=O)c3cccs3)CC2)c2cccnc2[nH]c1=O`, the melting point turned out to be 320 °C.
For `Cc1oc(-c2ccccc2)nc1CCOc1ccc(C[C@H](NC(=O)C(F)=Cc2ccccc2)C(=O)O)cc1`, the melting point was 174 to 176 °C.
Next, `COc1ccc(Nc2ncc3cc4ccccc4n3n2)cc1`: 197 to 200 °C; `O=C(O)Cc1cc(C(=O)C=Cc2ccc(F)cc2)ccc1O`: 212 °C; `CN1OCC(=O)N(c2ccc(C(C)(C)C)cc2)C1=S`: 168 to 170 °C.
The same measure for `CCCCc1nc2c(N)nc3ccccc3c2n1CCCCCCCCNS(C)(=O)=O`: 121 to 124 °C; for `CCNC1N=CN(c2ccccc2C)C(=O)N1` (configuration not stated): 208 to 210 °C.
The same measure for `CCC(=O)NC1C=CC(CO)C1` (configuration not stated): 67 to 68 °C; for `Nc1ccc(Sc2cccc3cnccc23)cc1NCc1ccccc1`: 125 to 127 °C; for `O=CCC(c1ccccc1)c1cc(Br)ccc1OCc1ccccc1` (configuration not stated): 99 to 100 °C.
`CC(C)c1nc(N(C(C)C)C(C)C)c([N+](=O)[O-])c(N(C(C)C)C(C)C)n1`: the melting point is 45 °C.
Take `CCc1ccccc1-c1nc2c3ccccc3ccn2c1N=Cc1ccc(C)cc1`: the melting point was in the range of 158 to 160 °C.
Turning to `CCOC(=O)Cc1cc(Br)c(OC(=S)N(C)C)c(Br)c1`, the melting point lay in the range of 93 to 95 °C.
Next, `CC[C@H](Cc1sccc1Cl)Nc1ccnc(O)c1[N+](=O)[O-]`: 150 to 152 °C; `COc1ccc(S(=O)(=O)C(Cc2cccnc2)(CC2CCCCC2)C(=O)NO)cc1` (configuration not stated): 57 to 60 °C.
Next, `COC(=O)C(C(=O)OC)c1ccc(Br)cc1`: 77 to 79 °C.
Next, `CSc1ccc(/C=C/C(=O)/C=C/C(=O)O)cc1`: 160 to 163 °C; `N=C(Nc1ccccc1)Nc1ncccc1OCc1c(F)cccc1Cl`: 147 to 149 °C.
Molecule `CC(C)(C)OC(=O)c1nn(-c2ccc(F)cc2F)c2c1C1CCC2C1` (configuration not stated) yielded a melting point of 97 to 99 °C.
`CCCCCCCCCCCCCCCCC(OC)C(=O)OC` (configuration not stated) showed a melting point of 33 to 36 °C.
Next, `OC(c1cccc(F)c1)C1CCCCN1` (configuration not stated): 146 to 148 °C; `CCOC(=O)c1cn([C@@H](C)COS(C)(=O)=O)c2c(F)c(-c3cc(C)nc(C)c3)c(F)cc2c1=O`: 180 to 183 °C; `O=S1(=O)NCN(C2CCCCCC2)c2cc(Cl)ccc21`: 149 to 151 °C.
The same measure for `CC(C)(c1ccc(Oc2ccc(N)cc2)cc1)c1cccc(C(C)(C)c2ccc(Oc3ccc(N)cc3)cc2)c1`: 180 °C; for `CNC(=O)c1ccccc1Nc1nc(Nc2ccc3c(c2)COCCN3C)ncc1Cl`: 216 to 217 °C.
With `CC(=O)N(O)C(CS(=O)(=O)c1ccc(-c2cccc(CNC(=O)c3nc4ccccc4c(=O)[nH]3)c2)cc1)C(C)C` (configuration not stated), the melting point lay in the range of 167 to 169 °C.
Next, `COc1ccc2c(c1)C(NC(=O)OCc1ccccc1)C(=O)N2c1ccc(F)cc1` (configuration not stated): 154 to 156 °C; `CNCC1Cc2cc(-c3ccccc3)cc(-c3cccc(F)c3)c2O1` (configuration not stated): greater than 250 °C.
Molecule `COc1ccc(Cc2cc(C(C)(C)C)c(O)c(C(C)(C)C)c2)cc1` displayed a melting point of 139 °C.
The same measure for `CCOC(=O)c1cc2ccnc(Cl)c2[nH]1`: 152 to 157 °C; for `Nc1nccc(-c2c(-c3ccccc3)nn3ccccc23)n1`: 222 to 223 °C; for `O=C1CCC(c2ccccc2)(c2ccccc2)CN1`: 177 to 180 °C.
Consider `COc1ccc(Nc2nc(NC3CCCCCC3)cc(N3CCC(O)CC3)n2)cc1Cl`, for which the melting point was in the range of 84 to 86 °C.
Next, `O=C(Cn1nnc2ccccc21)Nc1ccc(-n2nc(C3CC3)cc2C2CC2)cc1`: 216 to 220 °C; `O=C(c1ccc(Nc2ccnc3cc(C(F)(F)F)ccc23)cc1)N1CCC(O)(c2cccc(C(F)(F)F)c2)CC1`: 278 to 279 °C; `O=C(O)C1CCCCC1n1nc(-c2c(-c3ccccc3)nn3ccccc23)ccc1=O` (configuration not stated): 164 °C.
Molecule `O=C1OCCCCOC(=O)c2ccc(cc2)-c2ccc1cc2` yielded a melting point of 266 °C.
Take `Cc1cc(NC(=O)C(C)(O)COc2ccc(OCCBr)cc2)ccc1[N+](=O)[O-]` (configuration not stated): the melting point fell in the range of 135 to 138 °C.
`COc1cccc(C2Nn3cc(-c4cc(-c5ccc(Cl)cc5Cl)no4)nc3S2)c1` (configuration not stated) showed a melting point of 195 to 198 °C.
On to `O=Cc1ccc(C2=NOC(c3cc(Cl)cc(Cl)c3)(C(F)(F)F)C2)cc1Cl` (configuration not stated), for which the melting point was 129 to 130 °C.
`CCCN(CCC)C1Cc2c[nH]c3ccc(C(=O)C(C)C)c(c23)C1` (configuration not stated) yielded a melting point of 128 °C.
The same measure for `O=C1OC(c2ccccc2)N=C1CCCCNC(=O)c1ccccc1` (configuration not stated): 118 to 122 °C; for `COc1cc(C2=C(c3c[nH]c4ncccc34)C(=O)NC2=O)cc(OC)c1OC`: 162 °C; for `COc1ccc(N2C(=S)N(c3ccc(Oc4ccccc4)cc3)C(=O)C2C)cc1` (configuration not stated): 208 to 210 °C.

For the origin of these results see a melting point compilation (Tetko et al.; mined from patent text by program, amines drawn as free bases though some values may be those of a salt).
